For 86 compounds, melting point results are on record in a melting point compilation (Tetko et al.; mined from patent text by program, amines drawn as free bases though some values may be those of a salt).

Where only a bound is given, the exact number is not on record here.

With `O=C(c1ccc([N+](=O)[O-])cc1)N1CCc2cc(S(=O)(=O)N3CC(c4ccccc4)NC3=O)ccc21` (stereo unspecified), the melting point stood at 145 °C.

For `O=Cc1nccnc1OCc1ccccc1`, the melting point was found to be 69.4 °C. The value for `CS(=O)(=O)Nc1cc(OCCC(=O)O)ccc1Oc1ccccc1` was 145 to 149 °C; that for `C[C@H](NC(=O)OC(C)(C)C)C(=O)N[C@H](CCC(=O)O)C(N)=O` was 98 °C; that for `O=[N+]([O-])c1ccc2nc3c(nc2c1)OCC1CCCN31` (stereo unspecified) was 234 to 237 °C. `Cc1ccc2c(c1)c1c(n2C(=O)c2ccccc2)CCCC1C(=O)OCc1ccccc1` (stereo unspecified) came in with a melting point of 119 to 121 °C.

The compound `O=C(O)c1cc(C(=O)C2CCCCC2)cc2c1OC(c1ccccc1)(c1ccccc1)O2` displayed a melting point of 212 to 214 °C. With `CC(=O)Nc1nc(NC(C)CCc2ccccc2)nc(C(C)(C)F)n1` (stereo unspecified) the figure was 91 °C; with `CCCCCCS(=O)(=O)c1ccccc1C1NC(=O)NC1=O` (stereo unspecified), 188 to 189 °C. With `N#Cc1cc([N+](=O)[O-])ccc1Oc1ccc(Cl)c(Cl)c1` the figure was 154 to 155 °C; with `O=C(O)CCc1ccc(CCNC(=O)c2ccccc2)cc1`, 164 to 165 °C. With `CSc1nnsc1-c1cccs1` the figure was 49 to 49.5 °C; with `Cc1cccc2c1N(CC(=O)N1CC3CCC(CC3)C1)C(=O)C(NC(=O)c1cc3ccccc3[nH]1)N=C2C1CCCCC1` (racemic), 206 to 212 °C; with `COc1ccc(C2CCN(C(=O)Nc3ccc4cc(CN5C(C)(C)CCCC5(C)C)ccc4c3)CC2)cc1`, 164 to 166 °C. On to `CCCCC1OC(=O)c2cc(C#N)ccc21` (stereo unspecified), for which the melting point was 85 to 86 °C. Turning to `O=C1CCCN1Nc1ccncc1`, the melting point was 177 to 180 °C. The value for `CN=c1nc(N)nc2sc3cc(OC)ccc3n12` was 208 to 209 °C; that for `COc1ccc(NC(=S)NC(NC(=O)c2ccc(C)cc2)C(F)(F)F)cc1` (stereo unspecified) was 193 to 194 °C. The value for `CN1CCN(C(=O)c2cc(S(=O)(=O)NC3CCCCC3)ccc2N)CC1` was 167 to 168 °C; that for `CCOC(=O)c1cc2c(nc(C)n2C)c(O)c1CCC(O)c1ccccc1` (stereo unspecified) was 193 to 195 °C; that for `CCCCC1(N(C)C)CCC(c2[nH]c3ccccc3c2C)(c2[nH]c3ccccc3c2CCNS(=O)(=O)C2CCCC2)CC1` (stereo unspecified) was 111 to 115 °C. With `CN(C)CCNC(=O)Oc1ccc(Cl)cc1Cn1nc(-c2ccc(C(F)(F)F)cc2)oc1=O` the figure was 158 to 159 °C; with `O=[N+]([O-])c1cccc([N+](=O)[O-])c1NCCO`, 77 °C; with `CCOC(=O)CC1CCC2C3CC=C4C(C)(C)C(O)CCC4(C)C3CCC12C` (stereo unspecified), 127 to 129 °C.

As to `CC(C)CC(=O)N[C@H]1N=C(c2ccccc2)c2ccccc2N(C)C1=O`, the melting point lay within 83 to 102 °C. The compound `Cc1cc(C)c(-c2c(O)sc(-c3ccccc3)nc2=O)c(C)c1` yielded a melting point of 240 to 242 °C. With `COc1ccccc1N1CCN(CCCCNc2cc(Cl)nnc2Cl)CC1` the figure was 155 to 170 °C; with `CC(=O)NNC(=N)CCCCn1cnc(NC(N)=NCC(F)(F)F)n1`, 157 to 159 °C.

For the compound `NS(=O)(=O)c1ccc(NC(=O)CCl)c(F)c1`, the melting point is 185 to 187 °C. `COC(=O)/C=C/c1cnc2ccccc2c1`: the melting point lay within 118 to 120 °C. With `COC(=O)c1cccc(Oc2cccc(-c3nn(Cc4ccc(C(F)(F)P(=O)(O)O)c(F)c4)c(=Nc4ccc(Cl)c(Cl)c4)s3)c2)c1` the figure was 137 to 139 °C; with `Cc1ccc([C@@H](O)[C@H](Br)C(=O)N2C(=O)O[C@H](c3ccccc3)[C@@H]2C)cc1`, 139 °C; with `CN(C)CCCNC(=O)c1ccc(-c2ccc3nnn(Cc4ccc5ncccc5c4)c3n2)cc1`, 132 to 135 °C. The value for `O=[N+]([O-])c1cccnc1Nc1cc(F)ccc1F` was 150 to 152 °C; that for `NC(=O)C(c1ccc(F)c(F)c1)c1ccccn1` (racemic) was 123 to 124 °C; that for `Nc1cccc(-c2ccc(CCN3CCN(C(=O)NCc4ccccc4)CC3)cc2)n1` was 172 to 175 °C. Take `CCCCC(=O)N(Cc1cccc(OC)c1)c1cc(F)cc(-c2nnn[nH]2)c1`: the melting point lay in the range of 118 to 120 °C. With `COc1cc2c(c(OC)c1OC)C(C)(C)CC(C=O)=C2` the figure was 178 to 180 °C; with `CCCCCCCCCCCCCCCCOC(=O)NCCN1CCOCC1`, 65 °C; with `NC(=O)CCCCC1OCC(c2cccc3ccccc23)CO1` (stereo unspecified), 158 to 160 °C.

On to `COCOc1cc(C(=O)O)ccc1-c1ccc(-c2ccccc2)c(-c2ccc3c(c2)C(C)(C)CCC3(C)C)c1`, for which the melting point was 122 °C. With `CCOC(=O)CCCCCCC1C(=O)NC(=O)N1CCC(O)C1CCCCC1` (stereo unspecified) the figure was 62 to 63 °C; with `NC1(CO)CCCNC1=O` (stereo unspecified), 145 °C. The value for `COC(=O)C(NC(=O)N1C2CCC(C2)N1CC(O)C(Cc1ccccc1)NC(=O)C(NOCc1ccccn1)C(C)C)C(C)C` (mixture of isomers) was 79 to 84 °C; that for `FC(F)(F)c1ccc2c(c1)ncn2-c1cccc(-n2ccnc2)c1` was 177 to 180 °C; that for `Cc1cc(Br)cc(C(=O)c2[nH]c(=O)[nH]c(=O)c2C(C)C)c1` was 266 to 267 °C. With `CC(NC(=O)c1cc(Cl)ccc1NC(=O)c1cc(Br)nn1-c1ncccc1Cl)C1CC1` (stereo unspecified) the figure was 231 to 233 °C; with `CCc1cnc2c(c1)C(=O)N(C(C)(C(N)=O)C(C)C)C2=O` (stereo unspecified), 115 to 117 °C; with `Cc1cccnc1C(=O)NCCNC(=O)OC(C)(C)C`, 81 to 82 °C. As for `FC(F)(F)c1c[nH]c(-c2cccc(OCC3CO3)c2)n1` (stereo unspecified), the melting point is 145 to 146 °C.

`CC(C)OC(=O)C1CCCn2c(C(=O)c3ccc(F)cc3)ccc21` (stereo unspecified): the melting point was 92 °C. The value for `Cc1nn(CC(O)c2ccc(OC(F)(F)F)cc2)c(=O)n1-c1ccc(N2CCN(c3ccc(O)cc3)CC2)cc1` (stereo unspecified) was 231 °C; that for `COc1ccc(C2CCc3cc(OC)ccc3C2CO)cc1` (stereo unspecified) was 84 °C; that for `Oc1ccc(NCC2Cc3ccccc3C2)cc1` was 106 to 109 °C. Turning to `CC(C)Cc1sc(-c2nccs2)c2c1C(=O)CC(C)(C)C2`, the melting point fell in the range of 98 to 100 °C. Take `N#Cc1cccc(NCC(=O)Nc2c(Cl)ccc3nc(N4CC[C@@H](O)C4)ccc23)c1`: the melting point is 254 to 256 °C.

For `CCCCCCc1cc2c(s1)-n1c(C)nnc1CN=C2c1ccccc1Cl`, the melting point was 111 to 113 °C.

With `N#CCc1cccc(C(=O)c2ccc(Cl)cc2)c1`, the melting point is 86 to 90 °C.

Regarding `O=S(CCCCOc1ccc(C2=C(c3ccccc3)CCCc3cc(O)ccc32)cc1)Cc1ccccn1` (stereo unspecified), the melting point turned out to be 162 °C. The value for `CC(C)(C)OC(=O)c1ncn2c1[C@@H]1CCCN1C(=O)c1cc(Cl)ccc1-2` was 157 to 158 °C. `CCCc1ccc(-c2nc(-c3ccccc3Cl)nn2C)c(Cl)c1`: the melting point is 70 to 72 °C.

The compound `Brc1cncc2cccnc12` yielded a melting point of 79 to 81 °C.

The compound `COC(=O)c1sccc1-c1cc2c(cc1C)C(C)(C)CCC2(C)C` registered a melting point of 89 to 90 °C. The value for `Cc1cc2c(=O)n3cc(C(N)=O)ccc3nc2s1` was 350 to 354 °C; that for `O=C1c2ccccc2OC(CCCl)CN1Cc1ccccc1` (stereo unspecified) was 145 to 147 °C. With `CNC(=O)c1ccccc1-c1cc(-c2ccccc2)no1`, the melting point was in the range of 119 to 121 °C. With `Cc1ccccc1OCC(O)CN1CCC2(CC1)CSC1=C(O2)c2ccccc2C(=O)C1=O` (stereo unspecified) the figure was 191 to 193 °C. Consider `C[C@H](OC(=O)NCC(F)(F)C(F)(F)F)C(=O)N[C@@H]1C(=O)N(C)c2cc(F)ccc2O[C@@H]1C`, for which the melting point fell in the range of 148 to 150 °C. With `O=C(Cn1c(-c2cc([N+](=O)[O-])cc([N+](=O)[O-])c2)ncc(NC(=O)OCc2ccccc2)c1=O)NC(Cc1ccccc1)C(=O)C(F)(F)F` (stereo unspecified) the figure was 154 to 157 °C; with `Clc1ccc2nc(CN3CCC(c4ccccc4)CC3)cn2c1`, 132 to 133 °C; with `COC(=O)COc1cc2c(c3c1c(C(=O)C(N)=O)c(C)n3Cc1ccccc1)CCC2`, 135 to 138 °C. With `CCOc1cc2c(cc1OC)C(c1ccc(C(=O)N(C(C)C)[C@@H](C)CO)cc1)=N[C@@H]1CCN(C)C[C@H]21` the figure was 104 to 112 °C. `Cc1oc(C)c(C(=O)OC2CC(C)(C)N(C)C(C)(C)C2)c1C` returned a melting point of 55 to 56 °C. With `COc1ccc([N+](=O)[O-])cc1N1CCN(C(=O)OC(C)(C)C)CC1` the figure was 136 to 137 °C. With `CS(=O)(=O)c1ccc(Oc2cc(OC3CCOCC3)c3[nH]c(C4=NCC(CC(=O)NCCO)S4)cc3c2)cn1` (stereo unspecified) the figure was 157 to 158 °C. Consider `O=C(C=c1sc2n(c1=O)Cc1ccccc1N=2)NCc1ccccc1`, for which the melting point lay within 258 to 259 °C.

On to `N#CCN1C(=O)N(c2ccc(C#N)c(C(F)(F)F)c2)C(=O)C1(CO)CO`, for which the melting point lay within 157 to 158 °C. `O=c1c2cc3ccccc3cc2oc2cc(OCC3CO3)cc(O)c12` (stereo unspecified): the melting point was in the range of 201 to 202 °C. With `COc1ccc2[nH]c(=O)n3c(=O)[nH]nc3c2c1` the figure was > 350 °C; with `CCOC(NC(=O)c1snc(Cl)c1Cl)C(F)(F)F` (stereo unspecified), 99 to 101 °C.

As to `FC(F)(F)c1ccc(-c2cc(C(F)(F)F)c(Br)nn2)cc1`, the melting point is 123 to 125 °C. Compound `COc1cnn(-c2cc(Cl)cc(Cl)c2)c(=O)n1` displayed a melting point of 164 °C. The value for `Cn1c(C(F)(F)F)ccc(-c2cc([N+](=O)[O-])c(Cl)cc2F)c1=O` was 139 to 140 °C; that for `O=C(O)CCCCCCCCn1c(-c2ccccc2)c(-c2ccccc2)n(-c2ccccc2)c1=O` was 123 to 124 °C; that for `OC1(c2cncs2)CCCc2cc(Cl)ccc21` (stereo unspecified) was 108 to 109 °C. With `COCCNC(=O)c1cc(F)cc(-c2cccc3cc(Cc4ccc(F)c(Cl)c4)sc23)c1` the figure was 108 to 109 °C.

Broadly, the melting point is the temperature, or range, at which the solid turns liquid.
